What is called IC50 is the concentration at which inhibition is half-maximal. High values mean weaker potency in that assay, low ones greater potency in that assay.

The species named for test [1] is Homo sapiens. Briefly: Selectivity index, ratio of IC50 for human HDAC2 to IC50 for human HDAC6.
The target in a further test is T1, Histone deacetylase 11 (Homo sapiens, UniProt Q96DB2).
T1 sequence (Q96DB2 whole entry): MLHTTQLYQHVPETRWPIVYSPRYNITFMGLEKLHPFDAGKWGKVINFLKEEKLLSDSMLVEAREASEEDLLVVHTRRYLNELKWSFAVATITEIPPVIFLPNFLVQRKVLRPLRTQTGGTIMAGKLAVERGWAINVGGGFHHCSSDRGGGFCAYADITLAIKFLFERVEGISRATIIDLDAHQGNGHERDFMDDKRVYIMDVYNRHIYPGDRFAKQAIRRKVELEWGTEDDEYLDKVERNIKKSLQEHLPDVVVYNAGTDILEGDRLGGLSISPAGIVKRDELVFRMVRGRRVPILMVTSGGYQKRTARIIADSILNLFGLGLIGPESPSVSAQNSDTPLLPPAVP
Briefly: Inhibition of human HDAC11 after 15 mins by trypsin-coupled fluorescence assay.

A further test has as its target T2, Histone deacetylase 8 (Homo sapiens, UniProt Q9BY41).
T2 sequence (Q9BY41 whole entry): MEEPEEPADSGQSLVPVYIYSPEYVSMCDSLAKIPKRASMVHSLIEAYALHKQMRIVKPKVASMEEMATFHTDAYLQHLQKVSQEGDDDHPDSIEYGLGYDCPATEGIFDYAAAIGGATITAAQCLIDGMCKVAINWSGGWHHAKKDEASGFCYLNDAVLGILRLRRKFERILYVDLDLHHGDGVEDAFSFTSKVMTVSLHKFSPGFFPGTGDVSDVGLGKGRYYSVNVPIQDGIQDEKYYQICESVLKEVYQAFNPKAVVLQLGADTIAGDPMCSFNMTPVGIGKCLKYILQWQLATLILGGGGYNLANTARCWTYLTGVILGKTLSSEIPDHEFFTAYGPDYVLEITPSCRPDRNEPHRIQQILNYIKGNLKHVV
The test is described as follows: Inhibition of human HDAC8 after 15 mins by trypsin-coupled fluorescence assay.

For test [2], the target named is T3, Polyamine deacetylase HDAC10 (Homo sapiens, UniProt Q969S8).
T3 sequence (Q969S8 whole entry): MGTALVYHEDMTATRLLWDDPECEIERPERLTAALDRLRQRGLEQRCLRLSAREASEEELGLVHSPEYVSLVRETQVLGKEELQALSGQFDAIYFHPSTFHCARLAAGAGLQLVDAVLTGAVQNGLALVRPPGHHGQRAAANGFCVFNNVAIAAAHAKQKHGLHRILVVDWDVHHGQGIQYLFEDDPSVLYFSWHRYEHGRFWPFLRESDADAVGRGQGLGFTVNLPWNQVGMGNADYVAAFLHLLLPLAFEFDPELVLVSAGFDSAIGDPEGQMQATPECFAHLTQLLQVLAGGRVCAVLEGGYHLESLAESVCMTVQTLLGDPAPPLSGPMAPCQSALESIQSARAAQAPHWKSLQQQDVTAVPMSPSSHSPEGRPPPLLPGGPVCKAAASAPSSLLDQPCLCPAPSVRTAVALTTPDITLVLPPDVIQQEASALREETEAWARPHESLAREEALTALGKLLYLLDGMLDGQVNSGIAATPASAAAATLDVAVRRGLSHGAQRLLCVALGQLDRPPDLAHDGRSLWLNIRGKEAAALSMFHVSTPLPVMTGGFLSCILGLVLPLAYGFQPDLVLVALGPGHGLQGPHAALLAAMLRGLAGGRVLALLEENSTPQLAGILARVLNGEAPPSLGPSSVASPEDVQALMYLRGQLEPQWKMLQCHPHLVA
Briefly: Inhibition of human HDAC10 after 15 mins by trypsin-coupled fluorescence assay.

The target of another test is Histone deacetylase 5 (Homo sapiens, UniProt Q9UQL6). Briefly: Inhibition of human HDAC5 after 15 mins by trypsin-coupled fluorescence assay.
Chain of Histone deacetylase 5 (Q9UQL6 whole entry): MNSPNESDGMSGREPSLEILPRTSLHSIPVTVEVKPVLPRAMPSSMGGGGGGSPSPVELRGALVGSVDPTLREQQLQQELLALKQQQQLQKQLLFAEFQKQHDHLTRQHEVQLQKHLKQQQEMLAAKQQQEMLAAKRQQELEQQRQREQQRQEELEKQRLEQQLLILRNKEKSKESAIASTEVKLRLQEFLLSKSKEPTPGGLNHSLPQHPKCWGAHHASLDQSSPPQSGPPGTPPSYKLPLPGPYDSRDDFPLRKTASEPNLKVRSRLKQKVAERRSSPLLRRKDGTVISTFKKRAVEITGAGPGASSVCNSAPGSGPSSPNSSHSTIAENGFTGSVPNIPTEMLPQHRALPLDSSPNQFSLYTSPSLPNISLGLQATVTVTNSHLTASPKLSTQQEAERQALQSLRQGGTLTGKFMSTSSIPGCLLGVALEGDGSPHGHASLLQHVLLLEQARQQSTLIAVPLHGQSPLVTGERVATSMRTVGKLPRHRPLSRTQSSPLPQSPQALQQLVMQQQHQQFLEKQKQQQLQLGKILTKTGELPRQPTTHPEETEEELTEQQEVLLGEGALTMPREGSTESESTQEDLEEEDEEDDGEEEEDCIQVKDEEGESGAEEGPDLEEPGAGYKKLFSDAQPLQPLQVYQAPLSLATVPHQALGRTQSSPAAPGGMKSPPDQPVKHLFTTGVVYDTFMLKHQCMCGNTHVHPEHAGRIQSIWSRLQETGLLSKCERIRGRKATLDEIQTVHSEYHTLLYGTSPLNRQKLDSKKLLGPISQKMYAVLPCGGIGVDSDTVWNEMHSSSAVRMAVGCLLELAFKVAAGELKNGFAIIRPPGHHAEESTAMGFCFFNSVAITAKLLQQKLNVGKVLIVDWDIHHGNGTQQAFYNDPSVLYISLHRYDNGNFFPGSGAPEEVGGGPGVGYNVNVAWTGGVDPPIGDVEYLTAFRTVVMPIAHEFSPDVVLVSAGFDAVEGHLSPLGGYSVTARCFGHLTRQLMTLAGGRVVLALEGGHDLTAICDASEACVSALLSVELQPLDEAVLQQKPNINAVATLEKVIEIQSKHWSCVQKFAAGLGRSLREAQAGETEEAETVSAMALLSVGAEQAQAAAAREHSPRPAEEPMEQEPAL
The species named for test [3] is Homo sapiens. The test is described as follows: Selectivity index, ratio of IC50 for human HDAC11 to IC50 for human HDAC6.
Another test addresses Histone deacetylase 3 (Homo sapiens, UniProt O15379). The test is described as follows: Inhibition of human HDAC3 after 15 mins by trypsin-coupled fluorescence assay.
For a further test, the target named is Histone deacetylase 4 (Homo sapiens, UniProt P56524). Briefly: Inhibition of human HDAC4 after 15 mins by trypsin-coupled fluorescence assay.
Chain of Histone deacetylase 4 (P56524 whole entry): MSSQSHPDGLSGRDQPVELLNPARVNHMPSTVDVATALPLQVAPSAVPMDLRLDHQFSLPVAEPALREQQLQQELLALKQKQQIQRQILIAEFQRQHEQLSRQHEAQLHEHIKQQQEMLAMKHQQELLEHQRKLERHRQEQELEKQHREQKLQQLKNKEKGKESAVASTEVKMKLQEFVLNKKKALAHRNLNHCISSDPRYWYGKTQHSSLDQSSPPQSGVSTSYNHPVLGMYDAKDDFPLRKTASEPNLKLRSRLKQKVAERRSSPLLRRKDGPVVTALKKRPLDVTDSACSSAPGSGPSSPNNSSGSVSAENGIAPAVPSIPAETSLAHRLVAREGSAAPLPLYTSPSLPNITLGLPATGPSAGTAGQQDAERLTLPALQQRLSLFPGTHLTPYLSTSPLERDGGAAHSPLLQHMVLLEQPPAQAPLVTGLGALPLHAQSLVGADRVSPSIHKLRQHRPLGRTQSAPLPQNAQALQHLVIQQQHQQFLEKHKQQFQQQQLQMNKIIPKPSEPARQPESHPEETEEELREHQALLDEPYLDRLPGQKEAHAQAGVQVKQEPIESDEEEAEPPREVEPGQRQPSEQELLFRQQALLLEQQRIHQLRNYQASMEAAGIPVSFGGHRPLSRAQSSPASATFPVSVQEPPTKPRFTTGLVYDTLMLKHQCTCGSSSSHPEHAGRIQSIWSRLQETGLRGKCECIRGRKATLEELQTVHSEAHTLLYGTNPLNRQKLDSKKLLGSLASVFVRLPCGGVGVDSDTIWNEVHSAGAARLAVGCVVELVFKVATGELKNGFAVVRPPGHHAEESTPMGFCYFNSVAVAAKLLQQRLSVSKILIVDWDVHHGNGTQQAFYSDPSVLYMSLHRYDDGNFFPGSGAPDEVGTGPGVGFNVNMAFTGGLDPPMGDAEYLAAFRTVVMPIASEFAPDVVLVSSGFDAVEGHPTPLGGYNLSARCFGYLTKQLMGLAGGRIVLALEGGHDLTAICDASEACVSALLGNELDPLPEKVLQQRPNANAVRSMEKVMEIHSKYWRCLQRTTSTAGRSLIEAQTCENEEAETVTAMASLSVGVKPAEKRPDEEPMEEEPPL
The target in another test is Histone deacetylase 9 (Homo sapiens, UniProt Q9UKV0). The test is described as follows: Inhibition of human HDAC9 after 15 mins by trypsin-coupled fluorescence assay.
Chain of Histone deacetylase 9 (Q9UKV0 whole entry): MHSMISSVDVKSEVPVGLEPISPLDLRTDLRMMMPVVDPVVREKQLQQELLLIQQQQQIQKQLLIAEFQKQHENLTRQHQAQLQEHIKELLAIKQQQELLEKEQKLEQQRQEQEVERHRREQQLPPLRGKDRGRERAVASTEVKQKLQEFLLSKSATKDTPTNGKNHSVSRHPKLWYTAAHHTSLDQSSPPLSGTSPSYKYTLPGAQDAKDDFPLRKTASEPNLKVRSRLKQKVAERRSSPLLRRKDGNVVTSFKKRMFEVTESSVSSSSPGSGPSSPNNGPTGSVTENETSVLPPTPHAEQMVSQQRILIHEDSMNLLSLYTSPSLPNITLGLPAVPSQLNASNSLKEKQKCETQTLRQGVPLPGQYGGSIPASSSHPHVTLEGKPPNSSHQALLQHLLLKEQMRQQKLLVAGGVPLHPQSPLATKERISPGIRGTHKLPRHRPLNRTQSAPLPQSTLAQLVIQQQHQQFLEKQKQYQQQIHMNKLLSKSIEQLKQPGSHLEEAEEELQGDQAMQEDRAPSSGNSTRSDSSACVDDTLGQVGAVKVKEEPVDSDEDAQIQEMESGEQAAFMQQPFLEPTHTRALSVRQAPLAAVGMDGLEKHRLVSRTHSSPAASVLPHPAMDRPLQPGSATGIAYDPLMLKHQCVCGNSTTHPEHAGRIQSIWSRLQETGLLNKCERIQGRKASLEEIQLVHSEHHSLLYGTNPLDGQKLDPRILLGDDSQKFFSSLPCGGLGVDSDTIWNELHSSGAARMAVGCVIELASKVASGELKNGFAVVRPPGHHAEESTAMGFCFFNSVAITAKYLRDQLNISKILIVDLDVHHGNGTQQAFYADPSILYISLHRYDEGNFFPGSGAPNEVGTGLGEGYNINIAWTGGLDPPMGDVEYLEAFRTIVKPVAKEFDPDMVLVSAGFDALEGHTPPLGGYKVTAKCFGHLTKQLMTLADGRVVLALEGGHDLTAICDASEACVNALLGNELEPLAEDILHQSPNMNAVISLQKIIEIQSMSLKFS

Chain of Histone deacetylase 3 (O15379 whole entry): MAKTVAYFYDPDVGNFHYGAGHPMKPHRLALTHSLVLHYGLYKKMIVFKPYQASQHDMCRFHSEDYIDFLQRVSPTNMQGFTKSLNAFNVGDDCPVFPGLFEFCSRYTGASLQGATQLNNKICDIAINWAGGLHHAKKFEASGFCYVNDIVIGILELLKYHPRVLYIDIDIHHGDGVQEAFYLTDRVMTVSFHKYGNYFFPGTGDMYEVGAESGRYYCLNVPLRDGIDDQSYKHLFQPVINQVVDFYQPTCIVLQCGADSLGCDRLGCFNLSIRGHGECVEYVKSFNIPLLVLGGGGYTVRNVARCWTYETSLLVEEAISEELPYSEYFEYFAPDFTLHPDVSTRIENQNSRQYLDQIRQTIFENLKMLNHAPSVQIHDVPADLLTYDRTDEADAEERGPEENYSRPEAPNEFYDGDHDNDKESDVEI

Consider `O=C(NO)c1ccc(CN(CCO)C(=O)Cc2ccccc2)cc1`, for which the Ratio IC50 in the test filed under Homo sapiens [1] and in the test filed under Homo sapiens [3] was 15 to 400 each time. The IC50 was determined as 3.7 µM against Histone deacetylase 11; 0.4 µM against Histone deacetylase 8; 0.7 µM in [2]; 9.5 µM at Histone deacetylase 5; 2.1 µM against Histone deacetylase 3; 2.2 µM against Histone deacetylase 4. In addition, at Histone deacetylase 9, half-maximal inhibition (IC50) required 5.3 µM.
